Laboratory results from patent publication US20030170287A1, “Drug delivery systems for the prevention and treatment of vascular diseases” (priority 2002, published 2003).

What was measured:
[1] = Release of 40-O-(2-hydroxyethyl)-rapamycin from coated stents; format: physicochemical; conditions: PBS pH 7.4 or PEG/water 40/60 v/v, 37° C., solutions changed daily; stable = less than 10% of variation of the drug release
Experimental: Four 2 cm pieces of coated stents as described above are placed into 100 ml of phosphate buffer solution (PBS) having a pH of 7.4. Another 4 pieces from each series are placed into 100 ml polyethylene glycol (PEG)/water solution (40/60 v/v, MW of PEG=400). The stent pieces are incubated at 37° C. in a shaker. The buffer and PEG solutions are changed daily and different assays are performed on the solution to determine the released 40-O-(2-hydroxyethyl)-rapamycin concentrations. Such assays can show a stable release of 40-O-(2-hydroxyethyl)-rapamycin from coated stents for more than 45 days. By the term “stable release of 40-O-(2-hydroxyethyl)-rapamycin” is meant less than 10% of variation of the drug release. Controlled release techniques used by a person skilled in the art allow an unexpected easy adaptation of the required drug release rate. Thus, by selecting appropriate amounts of reactants in the coating mixture it is possible to easily control the bioeffectiveness of the rapamycin or rapamycin derivastive coated stents.

[2] = test system: New Zealand White rabbit iliac arteries (balloon injury and stent); assay: Inhibition of restenosis at 28 days in the rabbit iliac stent model; format: in vivo
Experimental: A.2 Inhibition of Restenosis at 28 Days in the Rabbit Iliac Stent Model
A combined angioplasty and stenting procedure is performed in New Zealand White rabbit iliac arteries. Iliac artery balloon injury is performed by inflating a 3.0 x 9.0 mm angioplasty balloon in the mid-portion of the artery followed by “pull-back” of the catheter for 1 balloon length. Balloon injury is repeated 2 times, and a 3.0×12 mm stent is deployed at 6 atm for 30 seconds in the iliac artery. Balloon injury and stent placement is then performed on the contralateral iliac artery in the same manner. A post-stent deployment angiogram is performed. All animals receive oral aspirin 40 mg/day daily as anti-platelet therapy and are fed standard low-cholesterol rabbit chow. Twenty-eight days after stenting, animals are anesthetized and euthanized and the arterial tree is perfused at 100 mmHg with lactated Ringer's for several minutes, then perfused with 10% formalin at 100 mmHg for 15 minutes. The vascular section between the distal aorta and the proximal femoral arteries is excised and cleaned of periadventitial tissue. The stented section of artery is embedded in plastic and sections are taken from the proximal, middle, and distal portions of each stent. All sections are stained with hematoxylin-eosin and Movat pentachrome stains. Computerized planimetry is performed to determine the area of the internal elastic lamina (IEL), external elastic lamina (EEL) and lumen. The neointima and neointimal thickness is measured both at and between the stent struts. The vessel area is measured as the area within the EEL. Data are expressed as mean±SEM. Statistical analysis of the histologic data is accomplished using analysis of variance (ANOVA) due to the fact that two stented arteries are measured per animal with a mean generated per animal. A P<0.05 is considered statistically significant.
A compound of formula I, e.g. 40-O-(2-hydroxyethyl)-rapamycin, is administered orally by gavage at a loading dose of 1.5 mg/kg one day prior to stenting, then dosed at 0.75 mg/kg/day from the day of stenting until day 27 post-stenting. In this model, the treatment with the compounds of formula I results in a marked reduction in the extent of restenotic lesion formation: for example, the treatment with 40-O-(2-hydroxyethyl)-rapamycin produces a significant (P<0.03) reduction in neointimal thickness (40% reduction), neointimal area (24% reduction), and percent arterial stenosis (26% reduction) with a significant 32% increase in lumen area. There is extensive neointimal formation in placebo-treated animals at 28 days, with the lesions consisting of abundant smooth muscle cells in proteoglycan/collagen matrix and apparent full endothelial healing.

[3] = test system: ballooned carotid of Sprague Dawley rats; assay: Inhibition of restenosis at 14 days in the rat carotid stent model (perivascular local delivery); format: in vivo, Sprague Dawley rat; conditions: administered locally (perivascular, osmotic pump) at 10 to 200 μg/day
Experimental: A.3 Inhibition of Restenosis at 14 Days in the Rat Carotid Stent Model
Male Sprague Dawley rats weighing […] are housed individually and allowed to acclimate prior to surgery. All animals receive standard rat chow and water ad libitum. Group size is 12 animals per group.
The drug(s) administration is perivascular. A segment of ballooned carotid is encircled with a 1 cm length of silastic tubing (0.25 inch inside diameter, 0.47 inch outside diameter) to which is attached a catheter which feeds into an osmotic pump containing either compound or vehicle. This delivery system provides continuous, local delivery to the adventitia of the wrapped portion of vessel. Local drug(s) administration ranges between 5 μg and 10 mg, locally per day, depending on the solubility characteristics of the individual compounds. […]
Animals are killed at 14 days post-balloon injury. […] Animals are killed by administration of an overdose of ketamine and rompun, the osmotic pumps are recovered and the volume of remaining content is recorded to ensure that pump failure has not occurred.
Carotid arteries are excised and immersion fixed, then transferred to Ringer's solution. […] The intimal lesion area and the medial area are determined by measurement of the internal elastic lamina, the external elastic lamina and the vessel/lumen interface.

[4] = test system: balloon injured rat carotid arteries; assay: Inhibition of late neointimal lesion formation in the 28 day rat carotid artery balloon injury model; format: in vivo; conditions: for percent inhibition of neointimal lesion formation: 28 days post-balloon injury
Experimental: A1. Inhibition of Late Neointimal Lesion Formation in the 28 Day Rat Carotid Artery Balloon Injury Model
Compounds of formula I are tested in the following rat model.
Rats are dosed orally with placebo or a compound of formula I. Daily dosing starts 3 days prior to surgery and continues for 31 days. Rat carotid arteries are balloon injured using a method described by Clowes et al. Lab. Invest. 1983;49;208-215. Following sacrifice at 28 days post-balloon injury, carotid arteries are removed and processed for histologic and morphometric evaluation. […] For example for 40-O-(2-hydroxyethyl)-rapamycin administered at 0.5, 1.0, and 2.0 mg/kg, the percent inhibition is similar at all three doses: inhibition is 31% at the lowest dose (0.5 mg/kg) and 39% at the highest dose (2.0 mg/kg). Compounds of formula I, e.g. 40-O-(2-hydroxyethyl)-rapamycin, have the beneficial effect to inhibit lesions at 4 weeks post-ballooning.

[5] = test system: dialysis patients with indwelling large bore catheter; assay: Prevention or reduction of vascular access dysfunction after insertion of an indwelling catheter into the vein of a patient; format: in vivo; conditions: daily dose of 0.75 to 20 mg, 3 month treatment, observation period of 6 months
Experimental: A5. Prevention or Reduction of Vascular Access Dysfunction in Association with the Insertion of an Indwelling Catheter into the Vein of a Patient
One hundred fifty prospective dialysis patients, who undergo successful insertion of an indwelling, large bore catheter, into a vein are selected for the study. […] In addition, patients may also be given a calcium antagonist, nitrates and/or anti-platelet agents. These drugs are administered for 3 consecutive months following catheter insertion.

[6] = oral loading dose 1.5 mg/kg, then 0.75 mg/kg/day to day 27, 28 days after stenting, P<0.03

SMILES: CO[C@H]1C[C@@H]2CC[C@@H](C)[C@@](O)(O2)C(=O)C(=O)N2CCCC[C@H]2C(=O)O[C@H]([C@H](C)C[C@@H]2CC[C@@H](OCCO)[C@H](OC)C2)CC(=O)[C@H](C)/C=C(\C)[C@@H](O)[C@@H](OC)C(=O)[C@H](C)C[C@H](C)/C=C/C=C/C=C/1C [40-O-(2-hydroxyethyl)-rapamycin]
- duration of stable release from coated stents [1]: more than 45 days
- histology of the intima in arterial segments ([2]; majority of arterial segments, 28 days after stenting): the intima is well healed
- endothelialization of stented arteries (scanning electron microscopic analysis) ([2]; n=4 arteries, oral 1.5 mg/kg loading, 0.75 mg/kg/day, 28 days): 84%
- increase in lumen area ([2]; oral loading dose 1.5 mg/kg, then 0.75 mg/kg/day to day 27, 28 days after stenting): 32%
- reduction in neointimal area [2, 6]: 24%
- reduction in neointimal thickness [2, 6]: 40%
- reduction in percent arterial stenosis [2, 6]: 26%
- neointimal lesion formation at 14 days post ballooning [3]: reduces neointimal lesion formation
- percent inhibition of neointimal lesion formation ([4]; 0.5 mg/kg oral daily): 31%
- percent inhibition of neointimal lesion formation ([4]; 2.0 mg/kg oral daily): 39%
- neointimal lesion formation at 28 days following balloon injury ([4]; oral dose of from 0.5 to 2.0 mg/kg): significantly reduce neointimal lesion formation
- prevention or reduction of vascular access dysfunction after catheter insertion [5]: demonstrate the efficacy
